Assay results reported in patent publication US10981926B2 (Janssen Pharmaceutica NV, priority 2016, dated 2021).

Tests used:
Assay type in all cases: cell-based
[1] = target: T1, wild-type Androgen Receptor (AR-wt) (Homo sapiens (Human), UniProt P10275); test: LNCaP-AR-wt ANT reporter assay (antagonist mode); conditions: for IC50: pIC50 = −Log10(IC50 in Molar), read-out: LNCaP-AR-wt ANT pIC50 (converted); for Emax: read-out: LNCaP-AR-wt ANT MAX % Inh
[2] = target: T1, wild-type Androgen Receptor (AR-wt); test: LNCaP-AR-wt AG reporter assay (agonist mode); conditions: for EC50: pEC50 = −Log10(EC50 in Molar), read-out: LNCaP-AR-wt AG pEC50 (converted); for Emax: read-out: LNCaP-AR-wt AG MAX % Stim
[3] = target: T2, F876L mutant Androgen Receptor (AR-F876L) (Homo sapiens (Human), UniProt P10275, F877L); test: LNCaP-AR-F876L ANT reporter assay (antagonist mode); conditions: for IC50: pIC50 = −Log10(IC50 in Molar), read-out: LNCaP-AR-F876L ANT pIC50 (converted); for Emax: read-out: LNCaP-AR-F876L ANT MAX % Inh
T2 sequence (P10275 whole entry F877L): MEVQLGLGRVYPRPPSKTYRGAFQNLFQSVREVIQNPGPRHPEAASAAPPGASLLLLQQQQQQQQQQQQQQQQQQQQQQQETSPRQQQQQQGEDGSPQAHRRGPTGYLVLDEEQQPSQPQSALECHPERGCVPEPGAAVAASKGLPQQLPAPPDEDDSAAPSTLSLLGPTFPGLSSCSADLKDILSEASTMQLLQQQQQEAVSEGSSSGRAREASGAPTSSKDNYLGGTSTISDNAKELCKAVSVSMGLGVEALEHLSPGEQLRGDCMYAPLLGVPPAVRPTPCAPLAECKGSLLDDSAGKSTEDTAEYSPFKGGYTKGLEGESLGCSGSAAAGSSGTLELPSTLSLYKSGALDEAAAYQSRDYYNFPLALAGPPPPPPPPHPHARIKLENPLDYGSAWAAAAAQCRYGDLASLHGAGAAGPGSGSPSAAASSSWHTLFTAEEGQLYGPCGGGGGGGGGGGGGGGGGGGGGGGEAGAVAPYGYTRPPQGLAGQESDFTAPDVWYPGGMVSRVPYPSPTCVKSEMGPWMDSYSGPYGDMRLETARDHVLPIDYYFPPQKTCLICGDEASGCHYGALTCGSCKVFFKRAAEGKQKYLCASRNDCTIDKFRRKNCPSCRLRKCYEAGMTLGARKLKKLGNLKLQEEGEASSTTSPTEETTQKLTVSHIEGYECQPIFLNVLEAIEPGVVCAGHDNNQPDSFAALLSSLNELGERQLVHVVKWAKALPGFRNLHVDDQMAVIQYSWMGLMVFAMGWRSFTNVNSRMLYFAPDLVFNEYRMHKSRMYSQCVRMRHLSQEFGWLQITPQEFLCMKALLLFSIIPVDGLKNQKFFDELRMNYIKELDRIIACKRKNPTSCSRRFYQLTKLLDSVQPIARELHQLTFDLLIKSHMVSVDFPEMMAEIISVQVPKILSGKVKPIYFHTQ

[4] = target: T2, F876L mutant Androgen Receptor (AR-F876L); test: LNCaP-AR-F876L AG reporter assay (agonist mode); conditions: for EC50: pEC50 = −Log10(EC50 in Molar), read-out: LNCaP-AR-F876L AG pEC50 (converted); for Emax: read-out: LNCaP-AR-F876L AG MAX % Stim
[5] = maximum % inhibition of R1881 control response over the tested concentration range
[6] = maximum % stimulation (agonist response) over the tested concentration range
[7] = antagonist mode, maximum % inhibition of R1881 control response over tested concentration range
[8] = agonist mode, maximum % stimulation over tested concentration range

T1 sequence (P10275 whole entry): as the sequence (P10275 whole entry F877L) above, with L877F counted along it

Compound | IC50 ([1]; antagonist mode) | Emax [1, 5] | EC50 ([2]; agonist mode) | Emax [2, 6] | IC50 ([3]; antagonist mode) | Emax [3, 5] | EC50 ([4]; agonist mode) | Emax [4, 6] | Emax [1, 7] | Emax [2, 8] | Emax [3, 7] | Emax [4, 8]
Cn1ncc2cc(N3C(=S)N(c4cnc(C#N)c(Cl)c4)C(=O)C34CCC4)ccc21 [Cpd 168, 3-chloro-5-[8-(1-methylindazol-5-yl)-5-oxo-7-thioxo-6,8-diazaspiro[3.4]octan-6-yl]pyridine-2-carbonitrile] | 95.5 nM | 101% | > 15100 nM | 0% | 145 nM | 99.3% | > 15100 nM | 0.8% | – | – | – | –
COCCn1ncc2cc(N3C(=S)N(c4cnc(C#N)c(C(F)(F)F)c4)C(=O)C34CCC4)ccc21 [Cpd 170, 5-[8-[1-(2-methoxyethyl)indazol-5-yl]-5-oxo-7-thioxo-6,8-diazaspiro[3.4]octan-6-yl]-3-(trifluoromethyl)pyridine-2-carbonitrile] | 589 nM | 101% | > 15100 nM | 0.2% | 309 nM | 102% | > 15100 nM | 0.1% | – | – | – | –
COCCn1ncc2cc(N3C(=S)N(c4cnc(C#N)c(OC)c4)C(=O)C34CCC4)ccc21 [Cpd 173, 3-methoxy-5-[8-[1-(2-methoxyethyl)indazol-5-yl]-5-oxo-7-thioxo-6,8-diazaspiro[3.4]octan-6-yl]pyridine-2-carbonitrile] | 437 nM | 100% | > 15100 nM | 0.4% | 186 nM | 100% | > 15100 nM | 0.1% | – | – | – | –
CN1CC2CC1CC2Oc1ccc(N2C(=S)N(c3cnc(C#N)c(C(F)(F)F)c3)C(=O)C23CCC3)cn1 [Cpd 177, (R,S)-5-[8-[6-[(2-methyl-2-azabicyclo[2.2.1]heptan-5-yl)oxy]-3-pyridyl]-5-oxo-7-thioxo-6,8-diazaspiro[3.4]octan-6-yl]-3-(trifluoromethyl)pyridine-2-carbonitrile] | 525 nM | 102% | > 15100 nM | 0.2% | 457 nM | 100% | > 15100 nM | 0.4% | – | – | – | –
COCCn1cc2ccc(N3C(=S)N(c4cnc(C#N)c(C(F)(F)F)c4)C(=O)C34CCC4)cc2n1 [Cpd 179, 5-[8-[2-(2-methoxyethyl)indazol-6-yl]-5-oxo-7-thioxo-6,8-diazaspiro[3.4]octan-6-yl]-3-(trifluoromethyl)pyridine-2-carbonitrile] | 1230 nM | 100% | > 15100 nM | -0.2% | 468 nM | 101% | > 15100 nM | -0.2% | – | – | – | –
CN1CCC[C@H](CNC(=O)c2ccc(N3C(=S)N(c4cnc(C#N)c(C(F)(F)F)c4)C(=O)C34CCC4)cc2)C1 [Cpd 184, 4-[6-[6-cyano-5-(trifluoromethyl)-3-pyridyl]-5-oxo-7-thioxo-6,8-diazaspiro[3.4]octan-8-yl]-N-[[(3R)-1-methyl-3-piperidyl]methyl]benzamide] | 813 nM | 100% | > 15100 nM | 0.2% | 447 nM | 99.6% | > 15100 nM | 0.4% | – | – | – | –
CN1CCC[C@@H](CNC(=O)c2ccc(N3C(=S)N(c4cnc(C#N)c(C(F)(F)F)c4)C(=O)C34CCC4)cc2)C1 [Cpd 185, 4-[6-[6-cyano-5-(trifluoromethyl)-3-pyridyl]-5-oxo-7-thioxo-6,8-diazaspiro[3.4]octan-8-yl]-N-[[(3S)-1-methyl-3-piperidyl]methyl]benzamide] | 708 nM | – | > 15100 nM | – | 427 nM | – | > 15100 nM | – | 102% | 0.2% | 102% | 0.8%
N#Cc1ncc(N2C(=O)C3(CCC3)N(c3ccc(C(=O)NC[C@@H]4CCCNC4)cc3)C2=S)cc1C(F)(F)F [Cpd 186, 4-[6-[6-cyano-5-(trifluoromethyl)-3-pyridyl]-5-oxo-7-thioxo-6,8-diazaspiro[3.4]octan-8-yl]-N-[[(3R)-3-piperidyl]methyl]benzamide] | 3160 nM | – | > 15100 nM | – | 2240 nM | – | > 15100 nM | – | 99.8% | 0.1% | 100% | 0%
C[N@+]1([O-])CC[C@H](Oc2ccc(N3C(=S)N(c4cnc(C#N)c(C(F)(F)F)c4)C(=O)C34CCC4)cc2)CC1 [Cpd 190, 5-[8-[4-(1-methyl-1-oxido-piperidin-1-ium-4-yl)oxyphenyl]-5-oxo-7-thioxo-6,8-diazaspiro[3.4]octan-6-yl]-3-(trifluoromethyl)pyridine-2-carbonitrile] | 3020 nM | – | > 15100 nM | – | 1660 nM | – | > 15100 nM | – | 95.3% | -0.1% | 97.4% | 0.1%

Results, then the compound that gave them:

IC50 ([1]; antagonist mode) | Emax [1, 5] | EC50 ([2]; agonist mode) | Emax [2, 6] | IC50 ([3]; antagonist mode) | Emax [3, 5] | EC50 ([4]; agonist mode) | Emax [4, 6] | Emax [1, 7] | Emax [2, 8] | Emax [3, 7] | Emax [4, 8] | Compound
331 nM | 102% | > 15100 nM | 0.2% | 200 nM | 101% | > 15100 nM | 0.1% | – | – | – | – | CN1CCC12CC(Oc1ccc(N3C(=S)N(c4cnc(C#N)c(C(F)(F)F)c4)C(=O)C34CCC4)cc1)C2 (stereo not shown) [Cpd 166, 5-[8-[4-[(3-methyl-3-azaspiro[3.3]heptan-6-yl)oxy]phenyl]-5-oxo-7-thioxo-6,8-diazaspiro[3.4]octan-6-yl]-3-(trifluoromethyl)pyridine-2-carbonitrile]
832 nM | 101% | > 15100 nM | -0.2% | 288 nM | 102% | > 15100 nM | 0% | – | – | – | – | COc1cc(N2C(=O)C3(CCC3)N(c3ccc4c(cnn4CCO)c3)C2=S)cnc1C#N [Cpd 167, 5-[8-[1-(2-hydroxyethyl)indazol-5-yl]-5-oxo-7-thioxo-6,8-diazaspiro[3.4]octan-6-yl]-3-methoxy-pyridine-2-carbonitrile]
479 nM | 104% | > 15100 nM | 0.3% | 269 nM | 101% | > 15100 nM | 0.1% | – | – | – | – | CN1CC2CC1CC2Oc1ccc(N2C(=S)N(c3cnc(C#N)c(C(F)(F)F)c3)C(=O)C23CCC3)cc1 [Cpd 176, (R,S)-5-[8-[4-[(2-methyl-2-azabicyclo[2.2.1]heptan-5-yl)oxy]phenyl]-5-oxo-7-thioxo-6,8-diazaspiro[3.4]octan-6-yl]-3-(trifluoromethyl)pyridine-2-carbonitrile]
550 nM | 103% | > 15100 nM | 0% | 191 nM | 102% | > 15100 nM | 0.1% | – | – | – | – | N#Cc1ncc(N2C(=O)C3(CCC3)N(c3ccc4c(cnn4C4CCNCC4)c3)C2=S)cc1Cl [Cpd 182, 3-chloro-5-[5-oxo-8-[1-(4-piperidyl)indazol-5-yl]-7-thioxo-6,8-diazaspiro[3.4]octan-6-yl]pyridine-2-carbonitrile]
1260 nM | – | > 15100 nM | – | 513 nM | – | > 15100 nM | – | 101% | 0.3% | 101% | 0.2% | CN1CC[C@@H](CNC(=O)c2ccc(N3C(=S)N(c4cnc(C#N)c(C(F)(F)F)c4)C(=O)C34CCC4)cc2)C1 [Cpd 187, 4-[6-[6-cyano-5-(trifluoromethyl)-3-pyridyl]-5-oxo-7-thioxo-6,8-diazaspiro[3.4]octan-8-yl]-N-[[(3S)-1-methylpyrrolidin-3-yl]methyl]benzamide]
